From the supplement of paper PMC10307832

What was measured:
Assay in all cases: relative viability (nuclei count vs DMSO), 5 days (fraction); higher = more cells survive
Dinaciclib = compound: CCc1cnn2c(NCc3ccc[n+]([O-])c3)cc(N3CCCC[C@H]3CCO)nc12 [Dinaciclib]
Method in brief: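 Viability was defined as treated-well nuclei divided by vehicle-well nuclei, with the median taken over replicate plates. Cells from lung cancer lines sat overnight at 37 °C in 1536-well plates, received five √10-spaced library-drug doses by pinning on vehicle-anchored plates, and grew 5 days without medium change before one-step fixation, permeabilisation and Hoechst staining, 4× imaging and MetaXpress nuclear counts. Only plates with control CV under 25% and at least one doubling were kept.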

Dinaciclib + Navitoclax = compound: CCc1cnn2c(NCc3ccc[n+]([O-])c3)cc(N3CCCC[C@H]3CCO)nc12 [Dinaciclib] + CC1(C)CCC(c2ccc(Cl)cc2)=C(CN2CCN(c3ccc(C(=O)NS(=O)(=O)c4ccc(N[C@H](CCN5CCOCC5)CSc5ccccc5)c(S(=O)(=O)C(F)(F)F)c4)cc3)CC2)C1 [Navitoclax] (partner 0.5 µM)
Method in brief: (§1)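 Dosing by pin tool came one day after lung cancer cell lines were seeded in 1536-well plates, using either one drug or a fixed anchor-drug dose plus five library-drug doses (not always all listed) in √10 steps. After 5 days, nuclei were counted on 4× images. Relative viability is treated-well nuclei count divided by vehicle-well nuclei count, and values are medians of duplicate plates.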

Dinaciclib + Lapatinib = compound: CCc1cnn2c(NCc3ccc[n+]([O-])c3)cc(N3CCCC[C@H]3CCO)nc12 [Dinaciclib] + CS(=O)(=O)CCNCc1ccc(-c2ccc3ncnc(Nc4ccc(OCc5cccc(F)c5)c(Cl)c4)c3c2)o1 [Lapatinib] (partner 2 µM)
Method in brief: as §1

Dinaciclib + Dasatinib = compound: CCc1cnn2c(NCc3ccc[n+]([O-])c3)cc(N3CCCC[C@H]3CCO)nc12 [Dinaciclib] + Cc1nc(Nc2ncc(C(=O)Nc3c(C)cccc3Cl)s2)cc(N2CCN(CCO)CC2)n1 [Dasatinib] (partner 0.075 µM)
Method in brief: as §1

Dinaciclib + Vorinostat = compound: CCc1cnn2c(NCc3ccc[n+]([O-])c3)cc(N3CCCC[C@H]3CCO)nc12 [Dinaciclib] + O=C(CCCCCCC(=O)Nc1ccccc1)NO [Vorinostat] (partner 1 µM)
Method in brief: as §1

Cell Line | relative viability (Dinaciclib; 0.009487 µM) | relative viability (Dinaciclib; 0.03 µM) | relative viability (Dinaciclib; 0.09487 µM) | relative viability (Dinaciclib; 0.3 µM) | relative viability (Dinaciclib + Navitoclax; first compound 0.009487 µM) | relative viability (Dinaciclib + Navitoclax; first compound 0.03 µM) | relative viability (Dinaciclib + Navitoclax; first compound 0.09487 µM) | relative viability (Dinaciclib + Navitoclax; first compound 0.3 µM) | relative viability (Dinaciclib + Lapatinib; first compound 0.009487 µM) | relative viability (Dinaciclib + Lapatinib; first compound 0.03 µM) | relative viability (Dinaciclib + Lapatinib; first compound 0.09487 µM) | relative viability (Dinaciclib + Lapatinib; first compound 0.3 µM) | relative viability (Dinaciclib + Dasatinib; first compound 0.009487 µM) | relative viability (Dinaciclib + Dasatinib; first compound 0.03 µM) | relative viability (Dinaciclib + Dasatinib; first compound 0.09487 µM) | relative viability (Dinaciclib + Dasatinib; first compound 0.3 µM) | relative viability (Dinaciclib + Vorinostat; first compound 0.009487 µM) | relative viability (Dinaciclib + Vorinostat; first compound 0.03 µM) | relative viability (Dinaciclib + Vorinostat; first compound 0.09487 µM) | relative viability (Dinaciclib + Vorinostat; first compound 0.3 µM)
EMC-BAC-2 | 0.951 | 0.413 | 0.224 | 0.197 | 1.22 | 0.576 | 0.205 | 0.213 | 0.85 | 0.598 | 0.165 | 0.157 | 0.312 | 0.117 | 0.13 | 0.109 | 0.36 | 0.166 | 0.152 | 0.143
NCI-H661 | 1.03 | 0.246 | 0.201 | 0.19 | – | – | – | – | 0.41 | 0.183 | 0.181 | 0.191 | 0.38 | 0.144 | 0.17 | 0.132 | 0.804 | 0.235 | 0.211 | 0.211
LU99A | 0.838 | 0.199 | 0.139 | 0.133 | 0.363 | 0.13 | 0.126 | 0.121 | 0.759 | 0.121 | 0.13 | 0.127 | 0.514 | 0.142 | 0.115 | 0.124 | 0.332 | 0.119 | 0.0932 | 0.109
LK-2 | 0.888 | 0.193 | 0.177 | 0.151 | 0.761 | 0.123 | 0.0967 | 0.102 | 0.712 | 0.182 | 0.102 | 0.176 | 0.267 | 0.141 | 0.115 | 0.144 | 0.251 | 0.152 | 0.148 | 0.161
SW 900 | 0.809 | 0.286 | 0.119 | 0.133 | – | – | – | – | – | – | – | – | 0.61 | 0.246 | 0.0591 | 0.0806 | 0.557 | 0.33 | 0.171 | 0.143
NCI-H3122 | 0.979 | 0.182 | 0.115 | 0.102 | 0.973 | 0.156 | 0.119 | 0.142 | 1.01 | 0.185 | 0.147 | 0.169 | 0.616 | 0.0841 | 0.0766 | 0.0827 | 1.05 | 0.095 | 0.0953 | 0.0902
NCI-H1563 | 1.25 | 0.552 | 0.314 | 0.286 | – | – | – | – | 1.24 | 0.489 | 0.411 | 0.423 | 0.448 | 0.307 | 0.133 | 0.123 | – | – | – | –
NCI-H358 | 0.785 | 0.153 | 0.104 | 0.131 | – | – | – | – | 0.341 | 0.216 | 0.196 | 0.188 | 0.182 | 0.0918 | 0.0845 | 0.0762 | 0.339 | 0.0713 | 0.0813 | 0.0842
IA-LM | 0.804 | 0.286 | 0.0334 | 0.0226 | 0.695 | 0.0044 | 0.0033 | 0.0072 | 0.73 | 0.0584 | 0.053 | 0.0435 | – | – | – | – | 0.973 | 0.547 | 0.0376 | 0.0379
ChaGo-K-1 | 0.95 | 0.246 | 0.203 | 0.146 | 0.541 | 0.219 | 0.173 | 0.17 | – | – | – | – | 0.529 | 0.154 | 0.116 | 0.127 | 0.803 | 0.197 | 0.139 | 0.112
NCI-H441 | 1.13 | 0.162 | 0.146 | 0.158 | 0.655 | 0.11 | 0.135 | 0.128 | – | – | – | – | 0.562 | 0.186 | 0.146 | 0.144 | 1.07 | 0.34 | 0.174 | 0.131
ABC-1 | 0.757 | 0.237 | 0.165 | 0.116 | – | – | – | – | 1.19 | 0.574 | 0.357 | 0.303 | 0.466 | 0.133 | 0.137 | 0.0934 | 0.845 | 0.419 | 0.297 | 0.246
NCI-H1792 | 1.01 | 0.358 | 0.117 | 0.0792 | 0.678 | 0.174 | 0.0483 | 0.0639 | 0.848 | 0.808 | 0.0608 | 0.0733 | 0.823 | 0.631 | 0.439 | 0.183 | – | – | – | –
HCC-44 | 0.973 | 0.443 | 0.176 | 0.147 | 1.08 | 0.15 | 0.149 | 0.161 | 0.921 | 0.144 | 0.134 | 0.135 | – | – | – | – | 1.24 | 1.04 | 0.368 | 0.319
NCI-H1703 | 1.16 | 0.531 | 0.104 | 0.118 | 1.19 | 0.117 | 0.0887 | 0.114 | 1.01 | 0.133 | 0.114 | 0.134 | – | – | – | – | – | – | – | –
NCI-H2342 | 1.11 | 0.696 | 0.368 | 0.301 | – | – | – | – | – | – | – | – | 0.333 | 0.289 | 0.248 | 0.23 | 0.75 | 0.685 | 0.703 | 0.323
NCI-H522 | 0.948 | 0.72 | 0.353 | 0.296 | – | – | – | – | – | – | – | – | 0.979 | 0.589 | 0.36 | 0.319 | 1.13 | 0.99 | 0.449 | 0.319
NCI-H650 | 0.874 | 0.21 | 0.159 | 0.137 | – | – | – | – | 0.566 | 0.171 | 0.0978 | 0.146 | 0.36 | 0.169 | 0.154 | 0.164 | 0.336 | 0.146 | 0.129 | 0.157
LCLC-103H | 1.03 | 0.855 | 0.204 | 0.146 | – | – | – | – | – | – | – | – | 0.41 | 0.432 | 0.0877 | 0.0685 | 0.777 | 0.505 | 0.178 | 0.197
